Results from patent US20250154109A1, “SODIUM CHANNEL BLOCKING COMPOUNDS, DERIVATIVES THEREOF, AND METHODS OF THEIR USE” (LATIGO BIOTHERAPEUTICS, INC, priority 2022, published 2025).

Experiments:
human Nav1.8 [1] = target: T1, human Nav1.8 (Homo sapiens, UniProt Q9Y5Y9); assay: SyncroPatch384PE assay (automated patch clamp); type: cell-based; conditions: human Nav1.8/b3 CHO cells
rat plasma protein = assay: Rat plasma protein binding by equilibrium dialysis; type: in vitro ADME; conditions: for Rat Plasma, Unbound %: equilibrium dialysis; for Fold increase vs Comparator (rat plasma unbound): ratio of unbound % sulfoximine / comparator sulfonamide
From the text: (§1) Table 3 presents the human and rat plasma protein binding data (% unbound) for the compounds of Table 2.
(§2) Comparator compounds A, B, C have been previously reported as inhibitors of Na, 1.8 in WO2020/092667. Comparator D, not previously reported, is offered as an additional sulfonamido example.

human plasma protein = assay: Human plasma protein binding by equilibrium dialysis; type: in vitro ADME; conditions: for Human Plasma, Unbound %: equilibrium dialysis; for Fold increase vs Comparatror (human plasma unbound): ratio of unbound % sulfoximine / comparator sulfonamide
From the text: as §1, §2

human Nav1.8 [2] = target: T1, human Nav1.8; assay: Sophion Qpatch II assay (automated patch clamp); type: cell-based; conditions: resting state block (TP1 measurement), human Nav1.8 HEK293 cells, read-out: P1 IC50
Procedure: Compounds were tested on recombinant human Nav1.8/01 stably transfected HEK293 (Eurofins, CYL3025, St. Charles, MO) cells using the Qpatch II system (Sophion Bioscience A/S, Ballerup—Denmark), an automated patch clamp device. Cells were cultured at 37° C./5% CO2 in DMEM/F-12 supplemented with 10% fetal bovine serum, lx Non-Essential Amino Acids, and selection antibiotics (0.625 μg/mL Puromycin, 400 μg/mL Geneticin, and 100 μg/mL Hygromycin). One or two days prior to recording, cells were moved to a lower temperature 30° C./5% CO2 incubator to increase surface expression of the channels. On the day of the recordings, cells in culture dishes were washed twice with Ca^2+—Mg^2+ free DPBS and treated with Detachin (Genlantis, San Diego) for 3 minutes and then resuspended in Serum Free Medium (EX-CELL® ACF CHO Medium for Cell Culture (Sigma-Aldrich) supplemented with 0.04 mg/mL soybean trypsin Inhibitor and 25 mM HEPES (all components supplied by Sigma-Aldrich, St. Louis, MO) and allowed to recover for a minimum of 20 minutes in the onboard Qstirrer. All experiments were performed at ambient temperature. Intracellular solution contained (mM): CsCl, 50; CsF, 90; MgCl2, 2; EGTA, 5; HEPES, 10; pH adjusted to 7.2 with CsOH. Extracellular solution contained (mM): NaCl, 137; KCl, 4; CaCl2), 3.8; MgCl2, 1; HEPES, 10; Glucose, 10; pH adjusted to 7.4 with NaOH. 500 nM tetrodotoxin (TTX) was added to the extracellular solution to block endogenous TTX-sensitive sodium currents.
Compounds were tested in an interleaved manner across two cohorts of wells to develop an aggregate 8-point concentration response curve. Final concentrations include 0.5% DMSO and 0.03% pluronic Acid. The concentration range spanned a range from 0.01-300 nM. Compounds were diluted 1:10 with extracellular solution within their respective cohort. (R)-2-(4-fluoro-2-methylphenoxy)-N-(3-(S-methylsulfonimidoyl)phenyl)-5-(trifluoromethyl)nicotinamide served as a positive control while DMSO (0.5% by volume) served as a vehicle control to ascertain assay performance.
Whole cell patch clamp recordings were conducted according to Sophion standard procedure for Qpatch II®. Cells were held at a holding potential of −120 mV. A depolarizing step to 10 mV for 30 ms was applied (TP1 measurement), followed by a hyperpolarization step to −100 mV for 20 ms. Due to instability observed at long depolarized potentials, there were no second TP2 measurements attempted. Inter-sweep interval was 15 sec. Following establishment of the whole-cell configuration in extracellular solution, cells were washed twice in extracellular solution containing 0.5% DMSO and 0.03% pluronic acid to stabilize the baseline current. Compounds were then applied by the Qpatch II system into each well in an ascending manner within cohort and the current was recorded for five minutes for each concentration. Percent of current remaining was determined by taking the average of the last 5 sweeps within each concentration and normalizing to the latest pre-compound saline period. The potency of the compounds was assessed on resting state block (TP1 measurement) only to obtain IC50 values. Wells whose initial sodium current magnitude were below 2 nA or whole cell resistance fell below 100 MQ were excluded from analysis.
Examples 220 to 224, Examples 237 to 257 and Example 259 are assayed using Sophion Qpatch II assay described above.

[3] = resting state block (P1 measurement), read-out: P1 IC50
[4] = inactivated state block (P2 measurement), read-out: P2 IC50

T1 sequence (Q9Y5Y9 whole entry): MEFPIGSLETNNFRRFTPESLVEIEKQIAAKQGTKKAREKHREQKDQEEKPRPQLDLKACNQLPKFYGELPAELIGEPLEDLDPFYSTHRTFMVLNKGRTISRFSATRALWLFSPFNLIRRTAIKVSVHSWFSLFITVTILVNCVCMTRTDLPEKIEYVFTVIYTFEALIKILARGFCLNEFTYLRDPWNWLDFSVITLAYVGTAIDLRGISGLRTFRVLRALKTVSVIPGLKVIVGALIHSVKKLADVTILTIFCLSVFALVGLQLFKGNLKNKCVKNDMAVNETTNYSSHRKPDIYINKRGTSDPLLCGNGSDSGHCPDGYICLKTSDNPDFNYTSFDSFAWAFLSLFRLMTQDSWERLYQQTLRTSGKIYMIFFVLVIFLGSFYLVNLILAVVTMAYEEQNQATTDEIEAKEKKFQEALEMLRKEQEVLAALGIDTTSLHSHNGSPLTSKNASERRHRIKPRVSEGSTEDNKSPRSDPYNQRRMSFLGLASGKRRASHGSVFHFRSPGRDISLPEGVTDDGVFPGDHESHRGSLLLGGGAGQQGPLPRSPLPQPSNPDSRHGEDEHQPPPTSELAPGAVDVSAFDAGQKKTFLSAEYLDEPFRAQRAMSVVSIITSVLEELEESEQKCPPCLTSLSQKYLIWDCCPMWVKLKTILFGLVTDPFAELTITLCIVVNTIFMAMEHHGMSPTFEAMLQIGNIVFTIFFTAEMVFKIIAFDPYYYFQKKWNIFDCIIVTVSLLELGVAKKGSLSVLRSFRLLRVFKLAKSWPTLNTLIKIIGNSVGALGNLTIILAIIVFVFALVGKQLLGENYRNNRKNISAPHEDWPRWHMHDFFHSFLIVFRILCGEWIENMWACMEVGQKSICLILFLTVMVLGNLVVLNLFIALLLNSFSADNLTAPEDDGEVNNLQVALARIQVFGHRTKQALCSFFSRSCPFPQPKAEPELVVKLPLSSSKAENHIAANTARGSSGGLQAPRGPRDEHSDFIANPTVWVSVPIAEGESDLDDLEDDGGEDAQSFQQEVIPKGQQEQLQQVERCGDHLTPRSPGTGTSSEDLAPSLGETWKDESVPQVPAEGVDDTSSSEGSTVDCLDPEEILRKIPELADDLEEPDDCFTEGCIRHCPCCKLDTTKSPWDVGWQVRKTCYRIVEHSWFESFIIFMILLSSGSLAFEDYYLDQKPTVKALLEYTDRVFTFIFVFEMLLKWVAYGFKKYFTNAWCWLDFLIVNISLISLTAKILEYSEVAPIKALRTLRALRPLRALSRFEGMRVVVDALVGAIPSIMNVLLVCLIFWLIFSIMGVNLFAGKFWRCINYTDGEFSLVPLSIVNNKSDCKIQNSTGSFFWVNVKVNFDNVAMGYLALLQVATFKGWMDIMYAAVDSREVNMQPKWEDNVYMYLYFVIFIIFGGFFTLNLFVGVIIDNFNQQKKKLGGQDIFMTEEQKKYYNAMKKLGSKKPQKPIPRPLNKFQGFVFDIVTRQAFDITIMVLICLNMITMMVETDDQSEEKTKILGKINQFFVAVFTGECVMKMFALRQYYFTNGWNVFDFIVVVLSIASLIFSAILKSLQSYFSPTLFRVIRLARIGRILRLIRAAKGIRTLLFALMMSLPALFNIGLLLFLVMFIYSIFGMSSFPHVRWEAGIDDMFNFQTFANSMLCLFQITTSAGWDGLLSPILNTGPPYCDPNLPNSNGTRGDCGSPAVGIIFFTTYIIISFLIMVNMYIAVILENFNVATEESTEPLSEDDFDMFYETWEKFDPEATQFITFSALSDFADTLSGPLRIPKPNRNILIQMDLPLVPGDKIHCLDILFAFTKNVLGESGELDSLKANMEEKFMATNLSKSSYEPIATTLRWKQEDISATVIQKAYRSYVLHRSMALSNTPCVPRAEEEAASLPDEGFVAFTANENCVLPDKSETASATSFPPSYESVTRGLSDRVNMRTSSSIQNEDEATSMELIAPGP

Cc1nc(N2CCCC(F)(F)CC2)c(C(=O)Nc2cccc(S(C)(=N)=O)c2)cc1Cl (stereo in doubt) [Example 17, (S)-5-Chloro-2-(4,4-difluoroazepan-1-yl)-6-methyl-N-(3-(S-methylsulfonimidoyl)phenyl)nicotinamide]
IC50 (human Nav1.8 [1]; [3]): ≤ 5 nM
Rat Plasma, Unbound % (rat plasma protein): 3.0%
Fold increase vs Comparator (rat plasma unbound) (rat plasma protein): 1.9×
Human Plasma, Unbound % (human plasma protein): 1.7%
Fold increase vs Comparatror (human plasma unbound) (human plasma protein): 3.2×

Cc1nc(N2CCCC(F)(F)CC2)c(C(=O)Nc2ccnc(S(N)(=O)=O)c2)cc1C(F)(F)F [Compound A, reference compound]
Rat Plasma, Unbound % (rat plasma protein): 0.52%
Human Plasma, Unbound % (human plasma protein): 0.24%

NS(=O)(=O)c1cccc(NC(=O)c2cc(C(F)(F)F)nnc2N2CCCC(F)(F)CC2)c1 [Compound B, reference compound]
Rat Plasma, Unbound % (rat plasma protein): 15.8%
Human Plasma, Unbound % (human plasma protein): 17.4%

Cc1nc(N2CCCC(F)(F)CC2)c(C(=O)Nc2ccnc(S(N)(=O)=O)c2)cc1Cl [Compound C, reference compound]
Rat Plasma, Unbound % (rat plasma protein): 1.62%
Human Plasma, Unbound % (human plasma protein): 0.53%

Cc1nc(N2CCCC(F)(F)CC2)c(C(=O)Nc2cccc(S(N)(=O)=O)c2)cc1C(F)(F)F [Compound D, reference compound]
Rat Plasma, Unbound % (rat plasma protein): 0.31%
Human Plasma, Unbound % (human plasma protein): 0.31%

CS(=N)(=O)c1cccc(NC(=O)c2cc(C(F)(F)F)nnc2N2CCCC(F)(F)CC2)c1 (centres unmarked) [Compound E]
Rat Plasma, Unbound % (rat plasma protein): 37.8%
Fold increase vs Comparator (rat plasma unbound) (rat plasma protein): 2.4×

Cc1nc(N2CCCC(F)(F)CC2)c(C(=O)Nc2cccc([S@](C)(=N)=O)c2)cc1C(F)(F)F [Example 4, (R)-2-(4,4-difluoroazepan-1-yl)-6-methyl-N-(3-(S-methylsulfonimidoyl)phenyl)-5-(trifluoromethyl)nicotinamide]
IC50 (human Nav1.8 [1]; [4]): ≤ 5 nM
IC50 (human Nav1.8 [1]; [3]): ≤ 5 nM
Rat Plasma, Unbound % (rat plasma protein): 1.9%
Fold increase vs Comparator (rat plasma unbound) (rat plasma protein): 6.1×
Human Plasma, Unbound % (human plasma protein): 0.9%
Fold increase vs Comparatror (human plasma unbound) (human plasma protein): 2.9×

Cc1nc(N2CCCC(F)(F)CC2)c(C(=O)Nc2ccnc(S(C)(=N)=O)c2)cc1C(F)(F)F (centres unmarked) [Example 101, 2-(4,4-difluoroazepan-1-yl)-6-methyl-N-(2-(S-methylsulfonimidoyl)pyridin-4-yl)-5-(trifluoromethyl)nicotinamide]
IC50 (human Nav1.8 [1]; [4]): ≤ 5 nM
IC50 (human Nav1.8 [1]; [3]): ≤ 5 nM
Rat Plasma, Unbound % (rat plasma protein): 3.55%
Fold increase vs Comparator (rat plasma unbound) (rat plasma protein): 6.8×
Human Plasma, Unbound % (human plasma protein): 1.8%
Fold increase vs Comparatror (human plasma unbound) (human plasma protein): 7.5×

Cc1c(C(F)(F)F)cnc(N2CCCC(F)(F)CC2)c1C(=O)N[C@H]1C[C@H](C(N)=O)C1 [Example 257, N-((trans)-3-carbamoylcyclobutyl)-2-(4,4-difluoroazepan-1-yl)-4-methyl-5-(trifluoromethyl)nicotinamide]
IC50 (human Nav1.8 [2]): 50 to 100 nM

Cc1c(C(F)(F)F)cnc(N2CCCC(F)(F)CC2)c1C(=O)N[C@H]1C[C@@H](C(N)=O)C1 [Example 259, N-((cis)-3-carbamoylcyclobutyl)-2-(4,4-difluoroazepan-1-yl)-4-methyl-5-(trifluoromethyl)nicotinamide]
IC50 (human Nav1.8 [2]): 50 to 100 nM
